# Reference: ChEMBL document CHEMBL1150065, “Isolation of picropolygamain from the resin of Bursera simaruba” (J Nat Prod, 1992)
# What was measured:
# A549 = assay: Cytotoxicity against human A549 cells; type: functional
# MCF7 = assay: Cytotoxicity against human MCF7 cells; type: functional
# HT-29 = assay: Cytotoxicity against human HT-29 cells; type: functional
# Artemia = assay: Toxicity in brine shrimp; type: organism-based
SMILES,ED50 (A549),ED50 (MCF7),ED50 (HT-29),IC50 (Artemia),"EC50 (A549; Homo sapiens, A549, read-out: ED50 (the source's name))","EC50 (MCF7; Homo sapiens, MCF7, read-out: ED50 (the source's name))","EC50 (HT-29; Homo sapiens, HT-29, read-out: ED50 (the source's name))"
COc1cccc2c1C(=O)c1c(O)c3c(c(O)c1C2=O)C[C@@](O)(C(=O)CO)C[C@@H]3O[C@H]1C[C@H](N)[C@H](O)[C@H](C)O1 [DOXORUBICIN],4.09 ×10⁻⁴ ug/ml,1.05 ×10⁻⁴ ug/ml,1.12 ×10⁻⁴ ug/ml,,,,
O=C1OC[C@@H]2Cc3cc4c(cc3[C@@H](c3ccc5c(c3)OCO5)[C@H]12)OCO4 [PICROPOLYGAMAIN],,,,52.2 ppm,< 0.01 µg/mL,< 0.01 µg/mL,< 0.01 µg/mL
